Laboratory results taken from patent US8445674B2, “Heterocyclyl compounds” (Hoffmann-La Roche Inc, priority 2009, dated 2013).

Each compound was assayed against T1, human chemokine receptor 2 isoform B (Homo sapiens, UniProt P41597) (assay: Calcium mobilization assay (FLIPR, antagonist activity against MCP-1)). Settings: Ca mobilisation assay, CHOK1-CCR2B-A5 cells, inhibition of calcium increase induced by 20 nM MCP-1.
T1 construct: host or cells: CHOK1-CCR2B-A5 cells (CHO-K1)
T1 sequence (P41597 1-360 isoform P41597-2): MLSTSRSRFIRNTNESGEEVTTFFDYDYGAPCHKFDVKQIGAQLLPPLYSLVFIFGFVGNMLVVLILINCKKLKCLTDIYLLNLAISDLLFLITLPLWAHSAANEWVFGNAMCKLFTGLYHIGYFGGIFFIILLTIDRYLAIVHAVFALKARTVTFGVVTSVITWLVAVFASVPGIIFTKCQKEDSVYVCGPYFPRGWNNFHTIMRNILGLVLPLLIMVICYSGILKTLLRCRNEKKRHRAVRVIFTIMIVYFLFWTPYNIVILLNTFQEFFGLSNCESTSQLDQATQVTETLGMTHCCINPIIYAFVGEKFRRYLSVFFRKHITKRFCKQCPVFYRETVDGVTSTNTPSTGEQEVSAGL
Type: cell-based
Experimental: Calcium Mobilization Assay
CHOK1-CCR2B-A5 cells (from Euroscreen) stably overexpressing the human chemokine receptor 2 isoform B were cultured in Nutrient Hams F12 medium supplemented with 5% FBS, 100 U/ml penicillin, 100 μg/ml streptomycin, 400 μg/ml G418 and 5 μg/ml puromycin.
For the assay cells were grown overnight in 384-well black clear flat bottom polystyrene plates (Costar) at 37° C. at 5% CO2. After washing with DMEM, 20 mM Hepes, 2.5 mM probenecid, 0.1% BSA (DMEM assay buffer) cells were loaded with 4 μM Fluo-4 in the same DMEM assay buffer for 2 hours at 30° C. Excess dye was removed and cells were washed with DMEM assay buffer. 384-well compound plates were prepared with DMEM assay buffer/0.5% DMSO with or without various concentrations of test compounds. Usually compounds were tested for agonist and antagonist activity.
Test compounds were added to the assay plate and agonist activity was monitored as fluorescence for 80 seconds with a FLIPR (488 nm excitation; 510-570 nm emission; Molecular Devices). After 20-30 min. of incubation at 30° C., 20 nM MCP-1 (R&D; Roche) was added and fluorescence was monitored again for 80 seconds. Increases in intracellular calcium are reported as maximum fluorescence after agonist exposure minus basal fluorescence before exposure. Antagonist activity is indicated as inhibitor concentration required for 50% inhibition of specific calcium increases.
C[C@H]1C(=O)N(CCCC(=O)N2CCC3(CC3)[C@H](O)C2)[C@@H](C(N)=O)CN1C(=O)Nc1ccc(C(F)(F)F)c(Cl)c1 [Example 148, (3R,6S)—N1-(3-chloro-4-(trifluoromethyl)phenyl)-4-(4-((S)-4-hydroxy-6-azaspiro[2.5]octan-6-yl)-4-oxobutyl)-6-methyl-5-oxopiperazine-1,3-dicarboxamide] was tested, and the IC50 was 30.5 nM. C[C@H]1C(=O)N(CCC(=O)N2CCCCC2)CCN1C(=O)Nc1ccc(Cl)c(Cl)c1 [Example 16, (S)-2-Methyl-3-oxo-4-(3-oxo-3-piperidin-1-yl-propyl)-piperazine-1-carboxylic acid (3,4-dichloro-phenyl)-amide] gave an IC50 of 4110 nM. C[C@H]1C(=O)N(CCCC(=O)N2CCC(C)(O)CC2)CCN1C(=O)Nc1cccc(Cl)c1 [Example 105, (S)-4-[4-(4-Hydroxy-4-methyl-piperidin-1-yl)-4-oxo-butyl]-2-methyl-3-oxo-piperazine-1-carboxylic acid (3-chloro-phenyl)-amide] gave an IC50 of 3410 nM. Work on O=C(/C=C/c1ccc(Cl)c(Cl)c1)N1CCC(=O)N(CCC(=O)N2CCC(O)(c3cccnc3)CC2)CC1 [Example 77, 1-[(E)-3-(3,4-Dichloro-phenyl)-acryloyl]-4-[3-(4′-hydroxy-3′,4′,5′,6′-tetrohydro-2′H-[3,4′]bipyridinyl-1′-yl)-3-oxo-propyl]-[1,4]diazepan-5-one] yielded an IC50 of 129 nM. With C[C@H]1C(=O)N(CCCC(=O)N2CCC3(CC3)[C@H](O)C2)CCN1C(=O)Nc1cccc(OC(F)(F)F)c1 [Example 31, (S)-4-[4-((S)-4-Hydroxy-6-aza-spiro[2.5]oct-6-yl)-4-oxo-butyl]-2-methyl-3-oxo-piperazine-1-carboxylic acid (3-trifluoromethoxy-phenyl)-amide] the IC50 was 51 nM. For C[C@H]1C(=O)N(CCCC(=O)N2CCC3(CC3)[C@H](O)C2)C(C(N)=O)CN1C(=O)Nc1ccc(Cl)c(Cl)c1 (stereo partly drawn) [Example 121, (3RS,6S)-4-[4-((S)-4-Hydroxy-6-aza-spiro[2.5]oct-6-yl)-4-oxo-butyl]-6-methyl-5-oxo-piperazine-1,3-dicarboxylic acid 3-amide 1-[(3,4-dichloro-phenyl)-amide]], the IC50 was 11 nM. Compound C[C@H]1C(=O)N(CCCC(=O)N2CCC3(CC3)[C@H](O)C2)CCN1c1ccc(C(F)(F)F)c(Cl)c1 [Example 60, (S)-4-(3-chloro-4-trifluoromethyl-phenyl)-1-[4-((S)-4-hydroxy-6-aza-spiro[2.5]oct-6-yl)-4-oxo-butyl]-3-methyl-piperazin-2-one] has an IC50 of 5 nM. Compound C[C@H]1C(=O)N([C@@H](CCC(=O)N2CCC3(CC3)[C@H](O)C2)C(N)=O)CCN1C(=O)Nc1ccc(C(F)(F)F)c(Cl)c1 [Example 141, (S)-4-[(S)-1-Carbamoyl-4-((S)-4-hydroxy-6-aza-spiro[2.5]oct-6-yl)-4-oxo-butyl]-2-methyl-3-oxo-piperazine-1-carboxylic acid (3-chloro-4-trifluoromethyl-phenyl)-amide] has an IC50 of 500 nM. In the case of O=C(/C=C/c1ccc(Cl)c(Cl)c1)N1CCC(=O)N(CCC(=O)N2CCCCC2)CC1 [Example 82, 1-[(E)-3-(3,4-Dichloro-phenyl)-acryloyl]-4-(3-oxo-3-piperidin-l-yl-propyl)-[1,4]diazepan-5-one], the IC50 is reported as 1830 nM. C[C@H]1C(=O)N(CCCC(=O)N2CCC(C)(C)[C@H](O)C2)CCN1C(=O)Nc1ccc(Cl)c(Cl)c1 [Example 38, (S)-4-[4-((S)-3-hydroxy-4,4-dimethyl-piperidin-1-yl)-4-oxo-butyl]-2-methyl-3-oxo-piperazine-1-carboxylic acid (3,4-dichloro-phenyl)-amide] showed an IC50 of 21.9 nM. C[C@H]1C(=O)N(CCC(=O)N2CCC(C(F)(F)F)CC2)CCN1C(=O)Nc1ccc(Cl)c(Cl)c1 [Example 24, (S)-2-Methyl-3-oxo-4-[3-oxo-3-(4-trifluoromethyl-piperidin-1-yl)-propyl]-piperazine-1-carboxylic acid (3,4-dichloro-phenyl)-amide] gave an IC50 of 3170 nM. C[C@H]1C(=O)N(CCCC(=O)N2CCC3(CC3)[C@H](O)C2)CCN1C(=O)Nc1ccc(OC(F)(F)F)cc1 [Example 30, (S)-4-[4-((S)-4-Hydroxy-6-aza-spiro[2.5]oct-6-yl)-4-oxo-butyl]-2-methyl-3-oxo-piperazine-1-carboxylic acid (4-trifluoromethoxy-phenyl)-amide] gave an IC50 of 20.4 nM. In the case of C[C@H]1C(=O)N(C[C@@H](O)CC(=O)N2CCC3(CC3)[C@H](O)C2)CCN1C(=O)Nc1ccc(C(F)(F)F)c(Cl)c1 [Example 42, (S)-4-[(S)-2-Hydroxy-4-((S)-4-hydroxy-6-aza-spiro[2.5]oct-6-yl)-4-oxo-butyl]-2-methyl-3-oxo-piperazine-1-carboxylic acid (3-chloro-4-trifluoromethyl-phenyl)-amide], the IC50 is reported as 8.2 nM. O=C1CCN(C(=O)Nc2ccc(C(F)(F)F)c(Cl)c2)CCN1CCCC(=O)N1CCC2(CC2)[C@H](O)C1 [Example 119, 4-[4-((S)-4-Hydroxy-6-aza-spiro[2.5]oct-6-yl)-4-oxo-butyl]-5-oxo-[1,4] diazepane-1-carboxylic acid (3-chloro-4-trifluoromethyl-phenyl)-amide] showed an IC50 of 17.6 nM. O=C(/C=C/c1ccc(Cl)c(Cl)c1)N1CCC(=O)N(CC(=O)N2CCC3(CCCC3)CC2)CC1 [Example 96, 4-[2-(8-Aza-spiro[4.5]dec-8-yl)-2-oxo-ethyl]-1-[(E)-3-(3,4-dichloro-phenyl)-acryloyl]-[1,4]diazepan-5-one] gave an IC50 of 3210 nM. COC(=O)[C@H](CCC(=O)N1CCC2(CC2)[C@H](O)C1)N1CCN(C(=O)Nc2ccc(C(F)(F)F)c(Cl)c2)[C@@H](C)C1=O [Example 52, (S)-2-[(S)-4-(3-Chloro-4-trifluoromethyl-phenylcarbamoyl)-3-methyl-2-oxo-piperazin-1-yl]-5-((S)-4-hydroxy-6-aza-spiro[2.5]oct-6-yl)-5-oxo-pentanoic acid methyl ester] was tested, and the IC50 was 738 nM. “(rac)-2-{4-[(E)-3-(3,4-Dichloro-phenyl)-acryloyl]-7-oxo-[1,4]diazepan-1-yl}-4-hydroxy-N,N-dimethyl-butyramide [Example 4]” gave an IC50 of 370 nM. With O=C(/C=C/c1ccc(Cl)c(Cl)c1)N1CCC(=O)N(CCC(=O)N2CCC(N3CCNC3=O)CC2)CC1 [Example 92, 1-[(E)-3-(3,4-Dichloro-phenyl)-acryloyl]-4-{3-oxo-3-[4-(2-oxo-imidazolidin-1-yl)-piperidin-1-yl]-propyl}-[1,4]diazepan-5-one] the IC50 was 952 nM. Work on COC(=O)[C@H](CCC(=O)N1CCC2(CC2)[C@H](O)C1)N1CCN(C(=O)Nc2ccc(OC(F)(F)F)c(Cl)c2)[C@@H](C)C1=O [Example 54, (S)-2-[(S)-4-(3-Chloro-4-trifluoromethoxy-phenylcarbamoyl)-3-methyl-2-oxo-piperazin-1-yl]-5-((S)-4-hydroxy-6-aza-spiro[2.5]oct-6-yl)-5-oxo-pentanoic acid methyl ester] yielded an IC50 of 216 nM. O=C1CCN(C(=O)Nc2ccc(Cl)c(Cl)c2)CCN1CCCC(=O)N1CCC2(CC2)[C@H](O)C1 [Example 117, 4-[4-((S)-4-Hydroxy-6-aza-spiro[2.5]oct-6-yl)-4-oxo-butyl]-5-oxo-[1,4]diazepane-1-carboxylic acid (3,4-dichloro-phenyl)-amide] was tested, and the IC50 was 20.2 nM.
